Data: patent US8193224B2, “Medicinal composition for prevention or treatment of parasitic protozoan infection” (Fujifilm Corporation, priority 2004, dated 2012)

Legend:
Type in all cases: cell-based
[1] = test system: Plasmodium falciparum K1 strain; assay: Chloroquine resistant-Plasmodium falciparum growth inhibition screening test; conditions: for EC50: Plasmodium falciparum, 72 h, chloroquine resistant K1 strain, 3H-hypoxanthine, 48 + 24 hours, read-out: 50% growth inhibition concentration P. falciparum K1; for Selective toxicity: chemotherapy index = EC50 rat L6 cells / EC50 chloroquine resistant P. falciparum
Procedure: In the present example, protozoa of Plasmodium falciparum K1 strain was used. RPMI-1640 medium sterilized with a filter to which human serum was added to be 5%, was used in the experiment. Malarial parasites were cultured under 3% O2 concentration, 4% Co2 concentration, 93% N2 concentration, and at a temperature of 37° C.
The compounds of the present invention to be used in the present test and the positive target drug (chloroquine) were dissolved in DMSO to make a test solution of a predetermined concentration. Cultured malarial parasite infected-erythrocytes were collected by centrifugation, and diluted with non-infected erythrocyte so that the early infection rate is 0.15%. Hematocrit level at that time was 2.5%. 200 μL of malaria infected solution was added to wells of a 96-well culture plate, and adjusted by adding a test solution containing drug of a predetermined concentration or a drug-free DMSO. Test solutions were taken by duplicates. After culturing for 48 hours at 37° C., 0.5 μCi radioactive tritium (3H)-labeled hypoxanthine was added to each well. After further culturing for 24 hours under the same conditions, it was collected on a glass fiber filter and washed with distilled water. Radiation intensity was measured with a beta plate liquid scintillation counter (Wallac), and malarial parasite infection rates of the test solution added group and of the control group were calculated. Growth inhibition rate was calculated with the following formula based on the malarial parasite infection rate obtained in the above, to obtain a 50% growth inhibition concentration (EC50). Growth inhibition rate (%)={1−(b−a)/(c−a)}×100 a: early infection rate b: infection rate when test solution was added c: infection rate of the control

[2] = test system: Leishmania donovani (MHOM/ET/67/L82 strain); assay: Leishmania protozoa growth inhibition screening test; conditions: Leishmania donovani; MHOM/ET/67/L82 strain amastigote, pH 5.4, 72 hours, Alamar Blue; read-out: 50% growth inhibition concentration Leishmania donovani
Procedure: In the present example, Leishmania donovani (MHOM/ET/67/L82 strain) was used. Protozoa was subcultured in Syrian Golden hamster, from which an amastigote was obtained. In the experiment, SM medium supplemented with 10% heat-treated bovine fetal serum was used, which was adjusted to pH 5.4, and cultured in an atmosphere of 5% CO2 concentration, at 37° C.
The compounds of the present invention to be used in the present test and the positive target drug (miltefosine) were dissolved in DMSO to make a test solution of a predetermined concentration. After adding a medium containing a predetermined number of protozoa to wells of a 96-well culture plate and pre-treating, concentration of the amastigote was measured with CASY cell analysis system (Scharfe, Germany). Then, test solution containing a drug of a predetermined concentration or a drug-free DMSO was added. Test solutions were taken by duplicates. After culturing the culture plate for 72 hours in an incubator, growth inhibition activity was tested. Test was conducted as follows.
10 μL of Alamar Blue aqueous solution was added to each well, and the resultant was further cultured for 2 hours. Next, the culture plate was placed on a fluorescent micro-plate reader (Spectramax Gemeni XS; US Molecular Device), radiated at an excited wavelength of 536 nm. Fluorescent intensity was measured at 588 nm, and infection rate of leishmania protozoa of the test solution added-group and control was calculated, to obtain a 50% growth inhibition concentration (EC50). Growth inhibition rate (%)={1−(b−a)/(c−a)}×100 a: early infection rate b: infection rate when test solution was added c: infection rate of the control

[3] = test system: Leishmania donovani (MHOM/ET/67/L82 strain); assay: as above; conditions: chemotherapy index = EC50 rat L6 cells / EC50 leishmania protozoa
[4] = test system: Trypanosoma cruzi (Tulahuen C2C4 strain); assay: American trypanosome protozoa growth inhibition screening test; conditions: for EC50: Trypanosoma cruzi, Tulahuen C2C4 strain in rat L6 cells, 96 hours, CPRG/Nonidet, read-out: 50% growth inhibition concentration Trypanosoma cruzi; for Selective toxicity: chemotherapy index = EC50 rat L6 cells / EC50 American trypanosome protozoa
Procedure: In the present example, amastigote and trypomastigote infected with rat L6 cells of protozoa of Trypanosoma cruzi (Tulahuen C2C4 strain) were used. As medium used in the test, RPMI 1640 medium containing L6 cells was supplemented so that L-glutamine (200 mM) becomes 1%, fetal bovine serum becomes 10%, which was cultured under CO2 concentration 5%, at 37° C.
The compounds of the present invention to be used in the test and the positive target agent (benznidazole) were dissolved in DMSO to make a test solution of a predetermined concentration. A medium containing 5×10^3 protozoa was added to wells of a 96-well culture plate, and pre-cultured for 48 hours. After replacing the medium, test solution containing drug of a predetermined concentration or a drug-free DMSO was added. Test solutions were taken by duplicates. After culturing the culture plate in an incubator for 96 hours, growth inhibition activity was tested. Test was conducted as follows.
50 μL of CPRG/Nonidet was added to each well, and allowed to rest for 2 to 6 hours. Next, the culture plate was placed on a fluorescent micro-plate reader, and the absorbance was measured at 540 nm. Growth inhibition rate was calculated with the following formula based on the protozoan infection rate which was obtained by calculating trypanosome infection rate of the test solution added group and control group, to obtain a 50% growth inhibition concentration (EC50). Growth inhibition rate (%)={1−(b−a)/(c−a)}×100 a: early infection rate b: infection rate when test solution was added c: infection rate of the control

[5] = Growth inhibition test of rat L6 cells; conditions: L6 cells (rat skeletal myoblast), Alamar Blue (Table 2), read-out: 50% growth inhibition concentration Cytotoxicity L6
Procedure: Rat derived-L6 cells (rat skeletal myoblast cell) were used. As medium, RPMI1640 medium was supplemented so that L-glutamin (200 mM) is 1%, and fetal bovine serum 10%, and the medium was cultured under CO2 concentration 5%, at 37° C. The compounds of the present invention and the target drugs to be used in the test were dissolved in DMSO, to make a test solution of a predetermined concentration. Pre-culture was conducted and medium containing cells which have entered the logarithmic growth phase was taken to wells of a 96-well culture plate. Then, a test solution containing drug of a predetermined concentration or a drug-free DMSO was added. Test solutions were taken by duplicates. Culture plate was cultured for 72 hours in an incubator, to test the growth inhibition activity. Test was conducted as follows.
10 μl of Alamar Blue aqueous solution was added to each well, and the resultant was further cultured for 2 hours. Next, the culture plate was placed on a fluorescent micro-plate reader (Spectramax Gemeni XS; US Molecular Device), radiated at an excited wavelength of 536 nm. Fluorescent intensity was measured at 588 nm, and residual rate of L6 cells of the test solution added group, and that of the control was calculated. Based on the cell residual rate obtained in the above, growth inhibition rate to L6 cells was calculated, to obtain a 50% growth inhibition concentration (EC50). Growth inhibition rate (%)={(C−A)/(B−A)}×100 A: primary cell count B: cell count of control, 3 days after C: cell count of wells added with a sample, 3 days after […]

`CCN1/C(=C/C=c2\s/c(=C\c3sc4c5ccccc5ccc4[n+]3CC)n(CC)c2=O)Sc2ccc3ccccc3c21` [A-1] showed an EC50 [1] of 11 nM, a Selective toxicity [1] of 2700 and an EC50 [2] of 8.3 nM. The Selective toxicity [3] was 3600, the EC50 [4] was 5100 nM and the Selective toxicity [4] was 5.9. The EC50 at 72 h [5] was 30000 nM.
`CCN1/C(=C/C=c2\s/c(=C\C3=[N+](CC)CCS3)n(CC)c2=O)C=Cc2ccccc21` [A-10] showed an EC50 [1] of 120 nM, a Selective toxicity [1] of 170 and an EC50 [2] of 150 nM. For the same molecule, the Selective toxicity [3] was 130, the EC50 [4] was 160 nM and the Selective toxicity [4] was 130. For the same molecule, the EC50 at 72 h [5] was 20000 nM.
In the case of `CCN1C(C)=CS/C1=C\C=c1/s/c(=C\c2sc3ccccc3[n+]2CC)n(CC)c1=O` [A-15], the EC50 [1] is reported as 76 nM, the Selective toxicity [1] is reported as 291 and the EC50 [2] is reported as 170 nM. The Selective toxicity [3] was 130, the EC50 [4] was 980 nM and the Selective toxicity [4] was 22. For the same molecule, the EC50 at 72 h [5] was 22000 nM.
